Measured values taken from patent US8211883B2, “Topical delivery of phthalocyanines” (priority 2004, dated 2012).

Tests used:
[1] = test system: RIF-1 tumors; assay: RIF-1 implanted tumors, PcIV followed by multiple exposures to light; assay type: in vivo, C3H/HeN mice
Protocol: To overcome the regrowth, RIF-1 tumors were implanted in C3H/HeN mice, and the mice were treated with PcIV followed by multiple exposures to light. For multiple exposures to light to be successful, the tumor tissue must retain sufficient levels of the photosensitizer over the exposure period.

[2] = test system: skin lesions (early mycosis fungoides, squamous cell carcinoma); assay: Topical PcIV-PDT of skin lesions in patients; assay type: in vivo, human
Protocol: PcIV solution concentrations were either 0.01 mg/mL or 0.05 mg/mL. One hour after administration of the PcIV solution, the skin lesions were exposed to a 675 nm laser, dose ranging from 50-100 J/cm^2. […] Two patients felt some heat over the treatment site during the first few minutes of laser exposure. […] Because Pc 4 is a photosensitizer, individual patient sun sensitivity was monitored by serial phototesting using solar simulated radiation. […] (see FIGS. 10a and 10b).

[3] = test system: chemically-induced benign skin papillomas; assay: PDT of chemically induced skin tumors; assay type: in vivo, SENCAR mice; conditions: 0.5 and 1.0 mg/kg i.p. in DPPC liposomes
Protocol: 6-week-old female SENCAR mice received a single topical application of 5 μg DMBA in 0.2 mL acetone on the dorsal skin as tumor initiator. One week later, the animals were started on twice-weekly topical applications of 1 μg TPA in 0.2 mL acetone as tumor promoter. All of the animals developed tumors at 12 weeks. Mice that developed 4-5 tumors per animal averaging 5-8 mm in diameter and 2-5 mm in thickness were used. Pc IV, entrapped in DPPC liposomes was administered intraperitoneally at doses of either 0.5 or 1.0 mg/kg and 24 hrs later the tumor area was illuminated with light from an argon pumped dye laser tuned at 675 nm for a total light dose of 135 j/cm^2 (75 mW/cm^2). All possible controls were included; either the animals were untreated, treated only with laser light or treated only with Pc IV alone.

[4] = test system: human skin keratome biopsies; assay: Penetration of topically applied PcIV and salts into human skin, confocal fluorescence microscopy; assay type: in vitro ADME; conditions: for laser transmission at which maximum fluorescence was detectable: fluorescence inversely proportional to laser transmission, listed as PcIV
Protocol: Human skin absorption of PcIV was analyzed by fluorescence confocal microscopy. PcIV fluorescence, upon activation with a HeNe laser at 633 nm, was visualized using a 650 long pass filter. Briefly, 0.4 mm thick human keratomes were removed from the gluteal region of healthy volunteers and divided into 1.5 cm×1.5 cm squares of skin. Upon application of PcIV to the epidermis in a vehicle of ethanol and propylene glycol, visualization of penetration of PcIV was achieved by fluorescence. Pc 4 was then prepared as PcIV-pyruvate and PcIV-HCl and applied in the same vehicle as Pc 4 to the epidermis. Three concentrations, namely, 0.1 mg/mL, 0.05 mg/mL, and 0.01 mg/mL were tested per PcIV formulation. Skin was incubated at 37° C. for 1, 2, and 4 hours, along with vehicle controls. […] Maximum PcIV fluorescence was detectable using laser transmission of 3% for the 0.1 mg/mL and 30% for the 0.01 mg/mL. Both PcIV.pyruvate and PcIV.HCl however could be visualized with a laser transmission of 2-3% for the 0.1 mg/mL and 7-9% for the 0.01 mg/mL concentrations.
The ability of PcIV and the newly prepared PcIV salts (HCl and pyruvate) to penetrate into the epidermis of keratome derived biopsies was examined. The time course of penetrance as well as the effect of dose of the PcIV compounds were evaluated. PcIV and the PcIV.HCl and PcIV.pyruvate salts were resuspended in ethanol (100%, 1 part PcIV, 499 parts ethanol) and then diluted to final concentrations in a 30% Propylene Glycol 70% Ethanol mixture.
Keratome biopsies of normal skin were obtained from normal volunteers after written consent according to UHHS IRB protocol # 05-95-03. To date, seven experiments have been performed. The range of age for volunteers was 20-40 yrs. Individuals represented Fitzpatrick skin types between I-III. Skin biopsies were held in PBS following the keratome procedure until processed for PcIV Application (less than 1 hr). The keratome skin samples (1.5 cm^2) were overlayed onto sterile gauze in 80 mm tissue culture petri dishes epidermal side down. PcIV compounds were then applied to the corners of the sterile gauze and allowed to “wick” through the gauze and contact the epidermis of the skin for the indicated times. Following the incubation, the tissue was removed from the gauze and washed three times in phosphate buffered saline and held, in PBS, until analysis by confocal microscopy. Confocal images were acquired using a 20×N.A. 0.5 water immersion objective on a Zeiss 510 confocal microscope. PcIV fluorescence was elicited using a 633 nm wavelength for excitation, and collected with a 633 nm dichroic mirror and 650 nm long-pass filter.

[5] = test system: Chinese hamster V79-379 lung fibroblasts; assay: Growth delay of V79 cultures after phthalocyanine and red light; assay type: cell-based; conditions: V79 cells, 0.5 μM, 18 hours, 12 kJ/m^2 red light; three day observation
Protocol: At the time of light exposure, there were approximately 1.5×10^5 cells per 25 cm^2 flask. Following irradiation, the HBSS was replaced by 10 mL of fresh complete growth medium, and the cultures were returned to the 37° C. incubator. At various times before and after irradiation, duplicate cultures were trypsinized and counted. Controls included untreated cells and cells treated with light alone or drug alone. In addition, in each experiment, the drug to be tested was compared to a standard treatment, i.e. 1 μM AlPcCl for 18 hours followed by 12 kJ/m^2 light.
The inhibition of V79 culture growth was measured during a three day period following red light irradiation (12 kJ/m^2) of phthalocyanine-pretreated cells. With each of the active compounds, as well as with AlPcCl, there was an initial decrease in cell density, as dead cells became detached from the monolayer. Thereafter, the cell number per flask increased, as living cells grew and divided. The time for the cell density to recover to the level at the time of light exposure was considered the growth delay. […] The ratio of the growth delay for the test photosensitizer and the growth delay for AlPcCl measured in the same experiment is recorded in Table 1. There was less inhibition of culture growth when cells were exposed to compounds III, V, or VI as expected from the poor cellular uptake of these drugs.

[6] = eleven patients, topical PcIV-PDT

Structure (SMILES): CN(C)CCC[Si](C)(C)O[Si]1(O)n2c3c4ccccc4c2N=C2N=C(N=c4c5ccccc5c(n41)=NC1=NC(=N3)c3ccccc31)c1ccccc12 (stereo not shown) [Compound IV, HOSiPcOSi(CH3)2(CH2)3N(CH3)2]
- % of Mice Surviving ([1]; 1 mg/kg in DPPC liposomes, 30 days, day of exposure 2): 100%
- % of Mice Surviving ([1]; 1 mg/kg in DPPC liposomes, 30 days, days of exposure 2, 3, 4, 5, and 6): 0%
- % of Mice Surviving ([1]; 1 mg/kg in DPPC liposomes, 30 days, days of exposure 2, 3, and 4): 0%
- % of Mice Surviving ([1]; 1 mg/kg in DPPC liposomes, 30 days, days of exposure 2-6): 0%
- % of Mice Surviving ([1]; 1 mg/kg in DPPC liposomes, 30 days, days of exposure 2 and 3): 100%
- % of Mice Surviving ([1]; 1 mg/kg in DPPC liposomes, 30 days, days of exposure 2 and 7): 100%
- % of Mice Surviving ([1]; 1 mg/kg in DPPC liposomes, 120 days, days of exposure 2, 3, 4, 5, and 6): 0%
- % of Mice Surviving ([1]; 1 mg/kg in DPPC liposomes, 120 days, days of exposure 2, 3, and 4): 0%
- % of Mice Surviving ([1]; 1 mg/kg in DPPC liposomes, 120 days, days of exposure 2-6): 0%
- % of Mice Surviving ([1]; 1 mg/kg in corn oil, 15 days, day of exposure 2): 100%
- % of Mice Surviving ([1]; 1 mg/kg in corn oil, 15 days, days of exposure 2, 3, 4, 5, and 6): 100%
- % of Mice Surviving ([1]; 1 mg/kg in corn oil, 15 days, days of exposure 2, 3, and 4): 100%
- % of Mice Surviving ([1]; 1 mg/kg in corn oil, 15 days, days of exposure 2-6): 100%
- % of Mice Surviving ([1]; 1 mg/kg in corn oil, 15 days, days of exposure 2 and 3): 100%
- % of Mice Surviving ([1]; 1 mg/kg in corn oil, 15 days, days of exposure 2 and 7): 100%
- tumor regrowth at sacrifice ([1]; DPPC liposomes, three to five irradiations, 300 days after the light treatment): no evidence of tumor regrowth
- tumor cure ([1]; entrapped in DPPC liposomes, mice irradiated three, four or five times at an interval of 24 hours): complete tumor cure
- tumor regrowth ([1]; given in corn oil, all the multiple exposure protocols): regrowth of tumors was evident 15 days after photodynamic therapy
- clinical response of lesions (erythema and infiltration) [2, 6]: Two patients showed a minimal decrease in erythema and infiltration of their lesions
- cures [2, 6]: No cures have been achieved to date
- TUNEL positivity in lesional skin biopsies ([2]; one patient with some clinical response, 24 hours after treatment): increase in TUNEL positivity along the superficial portion of the lesion
- changes in sunburn threshold or minimum erythema dose (MED) ([2]; serial phototesting with solar simulated radiation): No significant changes were observed
- adverse effects ([2]; topical 0.01 or 0.05 mg/mL, 675 nm laser 50-100 J/cm^2 one hour later, up to two weeks): No significant adverse effects were observed
- tumor volume after PDT ([3]; 675 nm 135 j/cm^2 24 hrs later): eventually decreased to 0 volume
- tumor return ([3]; length of the study 34 days): did not return for the length of the study
- laser transmission at which maximum fluorescence was detectable ([4]; 0.01 mg/mL in ethanol and propylene glycol): 30%
- laser transmission at which maximum fluorescence was detectable ([4]; 0.1 mg/mL in ethanol and propylene glycol): 3%
- penetration into skin ([4]; 0.01-0.1 mg/mL, 1, 2 and 4 hours at 37° C.): successfully penetrated the skin to the basal layer in a dose dependent fashion
- lowest concentration tested at which penetration is demonstrated ([4]; propylene glycol vehicle): 0.01 mg/mL
- time to effective penetration through intact human stratum corneum ([4]; propylene glycol/ethanol vehicle): within one hour
- Growth Delay (12 kj/m^2), Efficiency Relative to 1 μM (AlPcCl) [5]: >3
